≈ marks a conversion by molar mass, not a printed value.
Key:
[1] = target: T1, NAD-dependent protein deacetylase sirtuin-3, mitochondrial (Homo sapiens, UniProt Q9NTG7); assay: Inhibition of His-tagged SIRT3 (unknown origin) using KI179 as substrate after 1 hr by spectrophotometric analysis
T1 sequence (Q9NTG7 whole entry): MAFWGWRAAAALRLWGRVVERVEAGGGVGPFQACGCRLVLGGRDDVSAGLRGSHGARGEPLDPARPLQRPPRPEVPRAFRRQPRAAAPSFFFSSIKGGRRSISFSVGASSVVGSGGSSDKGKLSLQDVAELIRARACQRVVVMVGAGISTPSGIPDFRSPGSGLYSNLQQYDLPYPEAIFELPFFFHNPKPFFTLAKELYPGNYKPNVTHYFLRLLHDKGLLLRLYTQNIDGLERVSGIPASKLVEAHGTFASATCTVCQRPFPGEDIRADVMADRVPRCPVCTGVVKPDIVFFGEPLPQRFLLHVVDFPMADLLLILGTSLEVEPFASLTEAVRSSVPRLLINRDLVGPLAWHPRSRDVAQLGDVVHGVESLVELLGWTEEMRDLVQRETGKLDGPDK

[2] = target: T2, NAD-dependent protein deacetylase sirtuin-1 (Homo sapiens, UniProt Q96EB6); assay: Inhibition of GST-tagged SIRT1 (unknown origin) using KI177 as substrate after 1 hr by spectrophotometric analysis
T2 sequence (Q96EB6 whole entry): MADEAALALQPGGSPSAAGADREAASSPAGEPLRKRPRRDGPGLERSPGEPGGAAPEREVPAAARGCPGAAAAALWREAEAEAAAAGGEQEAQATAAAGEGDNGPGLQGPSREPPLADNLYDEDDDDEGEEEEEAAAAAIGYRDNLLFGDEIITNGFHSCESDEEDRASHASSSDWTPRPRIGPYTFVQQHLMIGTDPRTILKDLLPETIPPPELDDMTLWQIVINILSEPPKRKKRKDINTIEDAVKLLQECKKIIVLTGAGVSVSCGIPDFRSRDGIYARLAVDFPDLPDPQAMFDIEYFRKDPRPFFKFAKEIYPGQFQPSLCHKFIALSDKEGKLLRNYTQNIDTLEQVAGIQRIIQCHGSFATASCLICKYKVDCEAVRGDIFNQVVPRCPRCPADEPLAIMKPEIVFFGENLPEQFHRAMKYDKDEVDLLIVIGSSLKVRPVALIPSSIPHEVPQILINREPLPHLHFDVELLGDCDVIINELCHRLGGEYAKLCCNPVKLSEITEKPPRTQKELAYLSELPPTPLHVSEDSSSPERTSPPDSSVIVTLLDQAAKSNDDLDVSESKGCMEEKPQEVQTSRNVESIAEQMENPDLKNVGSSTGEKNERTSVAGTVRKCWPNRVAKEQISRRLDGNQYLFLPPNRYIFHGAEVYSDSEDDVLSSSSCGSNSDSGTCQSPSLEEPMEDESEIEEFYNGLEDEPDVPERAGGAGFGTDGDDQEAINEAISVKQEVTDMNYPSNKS

[3] = target: T3, NAD-dependent protein deacetylase sirtuin-2 (Homo sapiens, UniProt Q8IXJ6); assay: Inhibition of His-tagged SIRT2 (1 to 389) (unknown origin)-mediated deacetylation of Ac-RHKKAcW-NH2 substrate incubated for 20 mins prior to substrate addition measured after 30 mins by mass spectrophotometric analysis
T3 sequence (Q8IXJ6 whole entry): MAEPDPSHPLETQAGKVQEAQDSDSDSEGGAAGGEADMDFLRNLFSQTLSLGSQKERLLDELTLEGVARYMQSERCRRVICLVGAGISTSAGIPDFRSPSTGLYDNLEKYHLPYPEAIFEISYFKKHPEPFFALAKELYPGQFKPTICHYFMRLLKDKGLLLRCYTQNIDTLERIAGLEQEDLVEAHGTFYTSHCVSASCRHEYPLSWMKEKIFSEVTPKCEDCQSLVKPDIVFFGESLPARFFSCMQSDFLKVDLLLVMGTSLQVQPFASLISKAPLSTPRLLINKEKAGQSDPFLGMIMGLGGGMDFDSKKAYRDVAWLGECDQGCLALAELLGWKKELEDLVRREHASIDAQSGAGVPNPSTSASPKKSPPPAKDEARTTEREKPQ

[4] = target: T2, NAD-dependent protein deacetylase sirtuin-1; assay: Inhibition of His-tagged SIRT1 (1 to 747) (unknown origin)-mediated deacetylation of Ac-RHKKAcW-NH2 substrate preincubated for 20 mins measured after 30 mins by mass spectrophotometric analysis
[5] = Kinetic solubility in PBS at pH 7.4 by chemiluminescent nitrogen detection assay
[6] = target: T1, NAD-dependent protein deacetylase sirtuin-3, mitochondrial; assay: Inhibition of human His-tagged SIRT3 (102 to 399) expressed in Escherichia coli BL21(DE3) assessed as inhibition of deacetylation of Ac-RHKKAcW-NH2 substrate preincubated for 20 mins measured after 30 mins by mass spectrophotometric analysis
[7] = target: Voltage-gated inwardly rectifying potassium channel KCNH2 (Homo sapiens, UniProt Q12809); assay: Inhibition of human ERG by dofetilide binding assay
Voltage-gated inwardly rectifying potassium channel KCNH2, sequence (Q12809 whole entry): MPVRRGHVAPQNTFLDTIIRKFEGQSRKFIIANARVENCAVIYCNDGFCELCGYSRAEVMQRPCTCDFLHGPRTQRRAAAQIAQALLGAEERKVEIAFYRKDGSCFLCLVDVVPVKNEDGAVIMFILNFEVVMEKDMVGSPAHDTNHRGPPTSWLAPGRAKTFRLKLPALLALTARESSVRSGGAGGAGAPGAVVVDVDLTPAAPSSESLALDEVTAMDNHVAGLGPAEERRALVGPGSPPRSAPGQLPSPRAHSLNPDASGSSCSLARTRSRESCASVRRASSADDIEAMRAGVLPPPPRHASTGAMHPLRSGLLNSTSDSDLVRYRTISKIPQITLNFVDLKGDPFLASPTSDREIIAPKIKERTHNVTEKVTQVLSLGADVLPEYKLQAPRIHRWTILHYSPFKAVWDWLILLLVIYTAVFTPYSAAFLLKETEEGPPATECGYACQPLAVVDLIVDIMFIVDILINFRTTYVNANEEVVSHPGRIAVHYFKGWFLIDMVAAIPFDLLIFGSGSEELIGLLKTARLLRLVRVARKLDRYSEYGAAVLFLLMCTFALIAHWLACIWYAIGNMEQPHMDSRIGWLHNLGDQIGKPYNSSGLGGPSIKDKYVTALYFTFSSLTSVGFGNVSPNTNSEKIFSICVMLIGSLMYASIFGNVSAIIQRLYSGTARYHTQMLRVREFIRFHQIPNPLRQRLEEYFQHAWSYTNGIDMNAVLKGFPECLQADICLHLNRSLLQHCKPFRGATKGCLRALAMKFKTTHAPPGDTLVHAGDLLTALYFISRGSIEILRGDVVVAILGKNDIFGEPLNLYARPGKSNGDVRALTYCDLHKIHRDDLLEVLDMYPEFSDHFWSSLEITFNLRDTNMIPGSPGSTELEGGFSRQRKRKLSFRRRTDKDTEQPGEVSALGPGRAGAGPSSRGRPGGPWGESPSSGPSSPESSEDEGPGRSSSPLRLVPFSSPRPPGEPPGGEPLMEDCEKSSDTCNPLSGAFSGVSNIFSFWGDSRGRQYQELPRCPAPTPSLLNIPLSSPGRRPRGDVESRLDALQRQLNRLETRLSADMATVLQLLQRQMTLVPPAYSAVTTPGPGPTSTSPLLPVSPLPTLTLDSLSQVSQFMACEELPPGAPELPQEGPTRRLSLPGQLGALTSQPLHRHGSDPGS

Cytochrome P450 2D6 = Cytochrome P450 2D6 (Homo sapiens, UniProt P10635); assay: Inhibition of CYP2D6 (unknown origin); format: ADME
Cytochrome P450 2D6, sequence (P10635 whole entry): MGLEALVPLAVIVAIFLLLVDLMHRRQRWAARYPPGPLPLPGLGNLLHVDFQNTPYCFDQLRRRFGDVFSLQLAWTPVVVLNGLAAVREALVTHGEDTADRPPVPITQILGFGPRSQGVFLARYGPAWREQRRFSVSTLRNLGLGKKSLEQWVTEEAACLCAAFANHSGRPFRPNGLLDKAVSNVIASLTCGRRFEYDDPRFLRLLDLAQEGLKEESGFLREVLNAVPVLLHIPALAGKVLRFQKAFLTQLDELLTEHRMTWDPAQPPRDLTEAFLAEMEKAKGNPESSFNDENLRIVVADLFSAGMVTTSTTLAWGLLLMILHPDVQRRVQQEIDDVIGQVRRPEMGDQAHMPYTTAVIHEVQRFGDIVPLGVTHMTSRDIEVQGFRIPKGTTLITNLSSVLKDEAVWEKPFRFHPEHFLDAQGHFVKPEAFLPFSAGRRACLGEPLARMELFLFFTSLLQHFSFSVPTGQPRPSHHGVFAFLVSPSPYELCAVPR

Cytochrome P450 1A2 = target: T4, Cytochrome P450 1A2 (Homo sapiens, UniProt P05177); assay: Inhibition of CYP1A2 (unknown origin); format: ADME
T4 sequence (P05177 whole entry): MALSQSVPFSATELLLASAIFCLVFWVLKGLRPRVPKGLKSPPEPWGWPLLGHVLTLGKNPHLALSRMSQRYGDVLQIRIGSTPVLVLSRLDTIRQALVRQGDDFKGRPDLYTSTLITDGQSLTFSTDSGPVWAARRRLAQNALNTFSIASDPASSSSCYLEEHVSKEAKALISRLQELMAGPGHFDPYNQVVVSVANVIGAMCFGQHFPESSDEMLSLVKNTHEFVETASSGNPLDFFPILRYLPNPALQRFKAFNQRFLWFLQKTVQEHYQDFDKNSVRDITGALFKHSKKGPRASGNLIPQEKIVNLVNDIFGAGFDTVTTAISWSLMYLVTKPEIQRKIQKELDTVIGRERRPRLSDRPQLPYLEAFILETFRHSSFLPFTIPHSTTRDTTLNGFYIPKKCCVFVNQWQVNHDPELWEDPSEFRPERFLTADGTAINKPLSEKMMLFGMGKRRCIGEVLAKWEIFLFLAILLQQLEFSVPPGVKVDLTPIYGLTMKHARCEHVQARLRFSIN

[8] = Intrinsic clearance in human liver microsomes measured per mg of protein; format: ADME, Microsome; conditions: read-out: CLH
Cytochrome P450 2C19 = Cytochrome P450 2C19 (Homo sapiens, UniProt P33261); assay: Inhibition of CYP2C19 (unknown origin); format: ADME
Cytochrome P450 2C19, sequence (P33261 whole entry): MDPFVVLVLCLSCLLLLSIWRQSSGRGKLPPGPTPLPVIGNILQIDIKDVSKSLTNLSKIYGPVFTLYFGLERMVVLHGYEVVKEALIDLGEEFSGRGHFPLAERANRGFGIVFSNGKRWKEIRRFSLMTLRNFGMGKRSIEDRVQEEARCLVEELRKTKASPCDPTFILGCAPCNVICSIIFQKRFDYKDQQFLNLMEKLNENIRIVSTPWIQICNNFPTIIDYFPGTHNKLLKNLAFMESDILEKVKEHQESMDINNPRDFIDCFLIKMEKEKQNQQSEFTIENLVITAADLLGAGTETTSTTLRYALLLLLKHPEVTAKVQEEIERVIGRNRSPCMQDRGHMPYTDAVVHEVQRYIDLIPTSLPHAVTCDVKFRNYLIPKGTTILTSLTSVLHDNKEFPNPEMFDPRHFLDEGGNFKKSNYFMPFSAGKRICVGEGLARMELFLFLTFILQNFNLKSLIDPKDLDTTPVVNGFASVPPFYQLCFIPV

Cytochrome P450 3A4 = Cytochrome P450 3A4 (Homo sapiens, UniProt P08684); assay: Inhibition of CYP3A4 (unknown origin); format: ADME
Cytochrome P450 3A4, sequence (P08684 whole entry): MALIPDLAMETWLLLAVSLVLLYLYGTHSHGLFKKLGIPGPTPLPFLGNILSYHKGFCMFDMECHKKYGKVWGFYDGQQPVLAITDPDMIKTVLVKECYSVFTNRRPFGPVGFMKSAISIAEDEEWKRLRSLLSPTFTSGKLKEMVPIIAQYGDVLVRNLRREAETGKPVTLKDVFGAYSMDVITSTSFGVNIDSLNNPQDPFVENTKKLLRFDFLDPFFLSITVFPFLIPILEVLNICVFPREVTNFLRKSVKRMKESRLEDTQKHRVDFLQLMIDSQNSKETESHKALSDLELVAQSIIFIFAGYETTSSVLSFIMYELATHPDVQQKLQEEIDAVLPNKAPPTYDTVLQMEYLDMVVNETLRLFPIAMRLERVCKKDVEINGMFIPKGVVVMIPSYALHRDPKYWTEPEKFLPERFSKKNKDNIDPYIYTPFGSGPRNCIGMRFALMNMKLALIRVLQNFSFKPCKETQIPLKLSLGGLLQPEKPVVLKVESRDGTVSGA

[9] = Intrinsic clearance in mouse liver microsomes measured per mg of protein; format: ADME, Microsome; conditions: read-out: CLH

| Structure (SMILES) | IC50 [3] [nM] | IC50 [4] [nM] | solubility kinetic [5] [µM] | further results |
| --- | --- | --- | --- | --- |
| CCCCC[C@H]1CC(=O)c2cc(Cl)cc(Br)c2O1 | – | – | – | IC50 [1]: > 200 µM; IC50 [2]: > 200 µM |
| CCNC(=O)c1cccc(C(=O)NCCC2CCN(c3ncnc4cc(C(N)=O)sc34)CC2)c1 | 1.3 | 5.3 | 19 (≈ 9.13 µg/mL) | IC50 [6]: 4.9 nM |
| CCNC(=O)c1ccc(C(=O)NCCC2CCN(c3ncnc4cc(C(N)=O)sc34)CC2)s1 | – | – | 9 (≈ 4.38 µg/mL) | – |
| CCNC(=O)c1ccc(C(=O)NCCN2CCN(c3ncnc4cc(C(N)=O)sc34)CC2)s1 | 4.8 | – | 65 (≈ 31.7 µg/mL) | – |
| CC(C)(C)OC(=O)c1ccc(C(=O)NCCC2CCN(c3ncnc4cc(C(N)=O)sc34)CC2)s1 | 1.8 | 6.7 | – | – |
| CC(C)(C)C(=O)NCCC1CCN(c2ncnc3cc(C(N)=O)sc23)CC1 | – | – | 297 (≈ 116 µg/mL) | IC50 [7]: > 50 µM; IC50 (Cytochrome P450 2D6): > 50 µM; IC50 (Cytochrome P450 1A2): > 50 µM; microsomal CLint [8]: 15.8 µL/min/mg; IC50 (Cytochrome P450 2C19): > 50 µM; IC50 (Cytochrome P450 3A4): > 50 µM; microsomal CLint [9]: 12.7 µL/min/mg |
| CS(=O)(=O)NCCC1CCN(c2ncnc3cc(C(N)=O)sc23)CC1 | 1.1 | – | – | – |
| CC(C)(C)C(=O)NCCC1CCN(c2ncnc3cc(C(=O)O)sc23)CC1 | > 50000 | > 50000 | – | – |

Second part, led by results:

| IC50 [3] [nM] | IC50 [4] [nM] | solubility kinetic [5] [µM] | Structure (SMILES) | further results |
| --- | --- | --- | --- | --- |
| – | – | 220 (≈ 106 µg/mL) | CCNC(=O)c1cccc(C(=O)NCCN2CCN(c3ncnc4cc(C(N)=O)sc34)CC2)c1 | – |
| 4.4 | – | – | NC(=O)c1cc2ncnc(N3CCC(CCNC(=O)c4ccc(C(=O)O)s4)CC3)c2s1 | – |
| 6.5 | 5.8 | – | NC(=O)c1cc2ncnc(N3CCC(CCNC(=O)c4cccs4)CC3)c2s1 | – |
| 5.4 | – | – | CC(C)(C)OC(=O)NCCC1CCN(c2ncnc3cc(C(N)=O)sc23)CC1 | – |
